Experimental findings from PubChem BioAssay (NCI) are described below.

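In this assay, cells in 96-well plates receive the compound at five concentrations for 48 hours. Endpoints are linearly interpolated between the surrounding concentrations. Definition used: TGI = concentration required for complete inhibition of growth.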

Common to all, as to assay: NCI anticancer screen, dose series, 48 h
The subject of assay [1] is NCI-H460 lung.
The test system of assay [2] is HCT-116 colon.
The test system of assay [3] is LOX IMVI melanoma.
The test system of assay [4] is SW-620 colon.
The subject of assay [5] is HOP-92 NSCLC.
For assay [6], the system named is KM12 colon.
The test system of assay [7] is SF-268 CNS.
The subject of assay [8] is CAKI-1 renal.
For assay [9], the system named is HT29 colon.
Assay [10] deals with OVCAR-4 ovarian.
Assay [11] relates to SK-OV-3 ovarian.
Assay [12] deals with SN12C renal.
Assay [13] relates to UO-31 renal.
The test system of assay [14] is NCI-H226 lung.
Assay [15] concerns SF-295 CNS.
The subject of assay [16] is SK-MEL-5 melanoma.
For assay [17], the system named is SNB-75 CNS.
Assay [18] relates to UACC-62 melanoma.
Assay [19] relates to OVCAR-8 ovarian.
Assay [20] deals with CCRF-CEM leukemia.

On to `C/C(=N\NC(=S)NCc1ccccc1)c1nc2ncccc2[nH]1`, for which the TGI is 27.6 µM in assay [1]; 17.3 µM in assay [2]; 21.4 µM in assay [3]; more than 100 µM in [4]; 22.5 µM in assay [5]; 21.5 µM in assay [6]. In addition, the TGI in [7] is 65.6 µM; in assay [8], 61.2 µM; in assay [9] it was 12.8 µM; in [10], 83 µM; in assay [11] it was more than 100 µM; in [12] it was more than 100 µM. Moreover, the TGI was found to be 11 µM in [13]; 20.8 µM in assay [14]; 22.8 µM in assay [15]; 14.6 µM in [16]; 49 µM in assay [17]; 27.1 µM in assay [18]. In addition, the TGI in [19] was 26.8 µM; in [20], 19.2 µM.
Consider `O=C(CCN1CCOCC1)C(=Cc1ccccc1)C(=O)CCN1CCOCC1`, for which the TGI came out at 28.3 µM in assay [1]; 5.5 µM in assay [2]; 4.29 µM in assay [3]; 4.29 µM in assay [4]; 4.06 µM in assay [5]; 13 µM in [6]. For the same molecule, the TGI stood at 15.1 µM in assay [7]; 13.5 µM in [8]; 8.35 µM in assay [9]; 19.9 µM in assay [10]; 31.1 µM in [11]; 7.45 µM in [12]. The TGI worked out at 27.6 µM in assay [13]; 29.4 µM in assay [14]; 29.1 µM in [15]; 18.2 µM in assay [16]; 29.7 µM in assay [17]; 6.19 µM in [18]. Further, the TGI in assay [19] came to 9.88 µM; in assay [20] it was 7.84 µM.
For the molecule `NCc1cc(O)c(O)c(O)c1`, the TGI in [1], in [2], in assay [3], in assay [4], in assay [5] and in assay [6] was more than 100 µM throughout. Moreover, the TGI in assay [7], in assay [8], in assay [9], in assay [10], in assay [11] and in assay [12] was more than 100 µM throughout. The TGI in assay [13], in assay [14], in assay [15], in assay [16], in assay [17] and in assay [18] was more than 100 µM each time. The TGI in assay [19] and in assay [20] was more than 100 µM in each case.
With `O=C(N/N=C\C(F)(F)F)c1ccncc1`, the TGI in assay [1], in [3], in assay [4], in [5], in assay [6] and in assay [8] was more than 100 µM in each case. The TGI in assay [9], in assay [10], in [11], in assay [12], in assay [13] and in assay [14] was more than 100 µM in each case. The TGI in [15], in [16], in assay [17], in [18], in assay [19] and in assay [20] was more than 100 µM in each case.
For `COC(=O)C1=C(C)N2CCOC2CC1c1ccccc1` (stereo unspecified), the TGI in [1], in assay [2], in assay [4], in assay [5], in assay [6] and in assay [7] was more than 100 µM in each case. The TGI in [8], in assay [9], in assay [10], in assay [13], in assay [14] and in assay [15] was more than 100 µM throughout. For the same molecule, the TGI in assay [16], in [17], in assay [18], in assay [19] and in assay [20] was more than 100 µM each time.
Regarding `Cc1ccc(S(=O)(=O)NNC2Oc3cc4c(cc3C(c3ccccc3O)C2C)OCO4)cc1` (stereo unspecified), the TGI in assay [1] is 24.5 µM; in [2] it was 22.1 µM; in assay [3], 32.8 µM; in assay [4] it was 29.7 µM; in assay [5], 31.7 µM; in assay [6] it was 26.5 µM. Besides, the TGI in assay [7] came to 28.5 µM; in assay [8] it was 28.9 µM; in assay [9], 27.6 µM; in assay [11], 37.9 µM; in assay [12], 30.5 µM; in [13], 23 µM. The TGI in assay [14] worked out at 28.3 µM; in [15], 24.4 µM; in assay [16], 27.6 µM; in assay [17], 23.3 µM; in [18], 29.8 µM; in assay [20], 34.5 µM.
For the molecule `Cc1ccc(S(=O)(=O)NCCCSCCSCCCN)cc1`, the TGI in assay [1], in [2], in [3], in assay [4], in [5] and in [6] was more than 100 µM in each case. The TGI in [7], in assay [9], in assay [10], in [11], in [12] and in [13] was more than 100 µM each time. The TGI in [14], in [15], in [16], in [17], in assay [19] and in assay [20] was more than 100 µM in each case.
